Assay results from the NIST ThermoML archive (doi:10.1016/j.tca.2005.11.021).
± gives the expanded uncertainty stated by the source.

Test: molar heat capacity at constant pressure
Details: 101.33 kPa, Crystal, Small (less than 1 g) adiabatic calorimetry

N[C@@H](CCC(=O)[O-])C(=O)[O-].N[C@@H](CCC(=O)[O-])C(=O)[O-].O.O.O.O.O.O.O.O.O.[Ho+3].[Ho+3].[O-][Cl+3]([O-])([O-])O.[O-][Cl+3]([O-])([O-])O.[O-][Cl+3]([O-])([O-])[O-].[O-][Cl+3]([O-])([O-])[O-] [diholmium tetraperchlorate bis-l-glutamate nonahydrate]
Details	molar heat capacity at constant pressure [J/K/mol]
78.47 K	416.36 ± 1.8
79.95 K	427.06 ± 1.8
81.58 K	448.95 ± 1.9
83.14 K	457.5 ± 1.9
84.69 K	466.74 ± 2
86.44 K	480.65 ± 2
88.37 K	490.26 ± 2.1
90.58 K	502.33 ± 1.9
93.05 K	521.47 ± 1.9
95.51 K	537.31 ± 2
97.87 K	558.72 ± 2.1
100.23 K	562.37 ± 2.1
102.52 K	570.54 ± 2.1
104.79 K	579.03 ± 2.1
107.01 K	584.28 ± 2.1
109.19 K	599.35 ± 2.2
111.54 K	612.05 ± 2.2
114.01 K	619.47 ± 2.3
116.69 K	633.45 ± 2.3
119.55 K	640.47 ± 2.3
122.36 K	656.69 ± 2.4
125.12 K	670.24 ± 2.4
127.84 K	678.7 ± 2.5
130.52 K	691.49 ± 2.5
133.16 K	703.15 ± 2.5
136.41 K	717.73 ± 2.6
140.25 K	728.41 ± 2.6
144.03 K	745.38 ± 2.7
147.75 K	759.44 ± 2.8
151.88 K	781.07 ± 2.8
156.39 K	802.41 ± 2.9
160.82 K	822.03 ± 3
165.17 K	841.38 ± 3
169.46 K	860.32 ± 3.1
173.69 K	880.13 ± 3.2
177.85 K	903.04 ± 3.2
181.91 K	962.58 ± 3.5
185.82 K	1035.9 ± 3.7
189.62 K	1053.8 ± 3.8
193.38 K	1068 ± 3.8
197.09 K	1084.5 ± 3.9
200.76 K	1104.7 ± 3.9
204.4 K	1116.6 ± 4
208 K	1131.5 ± 4
211.57 K	1149.2 ± 4.1
215.09 K	1170.1 ± 4.2
218.58 K	1180.3 ± 4.2
222.04 K	1198 ± 4.3
225.47 K	1211.6 ± 4.3
228.86 K	1235.1 ± 4.4
232.19 K	1241.6 ± 4.4
235.57 K	1256.3 ± 4.5
239.35 K	1265.1 ± 4.5
243.62 K	1286.5 ± 4.6
247.83 K	1297.2 ± 4.6
252.02 K	1318.1 ± 4.7
256.17 K	1324 ± 4.7
260.28 K	1339.5 ± 4.8
264.35 K	1355.8 ± 4.8
268.38 K	1368.2 ± 4.9
272.36 K	1390.1 ± 4.9
276.3 K	1406.8 ± 5
280.21 K	1418.2 ± 5
284.86 K	1435.3 ± 5.1
290.1 K	1457.8 ± 5.2
295.36 K	1477.1 ± 5.2
300.5 K	1499 ± 5.3
305.57 K	1521.1 ± 5.4
310.61 K	1529.2 ± 5.4
315.6 K	1558.3 ± 5.5
320.54 K	1577.6 ± 5.6
325.43 K	1599.1 ± 5.7
330.3 K	1607 ± 5.7
335.02 K	1641.9 ± 5.8
339.66 K	1649.4 ± 5.8
344.14 K	1668.3 ± 5.9
